Experiments:
Assay type in all cases: in vivo
[1] = test system: Thanatephorus cucumeries (Rice); assay: Foliar fungal disease test on plants: Thanatephorus cucumeries (Rice); conditions: 100 ppm a.i. foliar spray or root drench (approx. 40 ppm in dry soil), one or two days before inoculation
[2] = test system: Puccinia recondita (Wheat); assay: Foliar fungal disease test on plants: Puccinia recondita (Wheat); conditions: 100 ppm a.i. foliar spray or root drench; plants inoculated with Puccinia recondita 48 hours before treatment
[3] = test system: Pyricularia oryzae (Rice); conditions: 100 ppm a.i. foliar spray or root drench (approx. 40 ppm in dry soil), one or two days before inoculation
[4] = test system: Venturia inaequalis (Apples); assay: Foliar fungal disease test on plants: Venturia inaequalis (Apples); conditions: 100 ppm a.i. foliar spray or root drench (approx. 40 ppm in dry soil), one or two days before inoculation
[5] = test system: Plasmopara viticola (Vines); assay: Foliar fungal disease test on plants: Plasmopara viticola (Vines); conditions: 100 ppm a.i. foliar spray or root drench (approx. 40 ppm in dry soil), one or two days before inoculation
[6] = test system: Phytophthora infestans (Tomatoes); conditions: 100 ppm a.i. foliar spray or root drench (approx. 40 ppm in dry soil), one or two days before inoculation
[7] = test system: Erysiphe graminis tritici (Wheat); assay: Foliar fungal disease test on plants: Erysiphe graminis tritici (Wheat); conditions: 100 ppm a.i. foliar spray or root drench (approx. 40 ppm in dry soil); plants inoculated 24 hours before treatment
Septoria nodorum (Wheat) = assay: Foliar fungal disease test on plants: Septoria nodorum (Wheat); conditions: 100 ppm a.i. foliar spray or root drench (approx. 40 ppm in dry soil), one or two days before inoculation

In the case of `COC=C(C(=O)OC)c1ccccc1COC(=O)N(Cc1ccccc1)c1cccc(F)c1` [8 (97)], the “POCO (Percentage of Control) disease level, Thanatephorus cucumeries (Rice)” value [1] is reported as 90 (90 and 94 = 60.1-100% disease present), the “POCO (Percentage of Control) disease level, Puccinia recondita (Wheat)” value [2] is reported as 90+ (90 and 94 = 60.1-100% disease present) and the “POCO (Percentage of Control) disease level, Pyricularia oryzae (Rice)” value [3] is reported as 30 (30 = 20.1-30% disease present). The “POCO (Percentage of Control) disease level, Venturia inaequalis (Apples)” value [4] was 30 (30 = 20.1-30% disease present), the “POCO (Percentage of Control) disease level, Plasmopara viticola (Vines)” value [5] was 0 (0 = 0% disease present) and the “POCO (Percentage of Control) disease level, Phytophthora infestans (Tomatoes)” value [6] was 90 (90 and 94 = 60.1-100% disease present). For the same molecule, the “POCO (Percentage of Control) disease level, Erysiphe graminis tritici (Wheat)” value [7] was 90 (90 and 94 = 60.1-100% disease present) and the “POCO (Percentage of Control) disease level, Septoria nodorum (Wheat)” value (Septoria nodorum (Wheat)) was 90 (90 and 94 = 60.1-100% disease present).
`COC=C(C(=O)OC)c1ccccc1COC(=O)N(C)c1cccc(SC)c1` [10 (2)] was tested, and the “POCO (Percentage of Control) disease level, Thanatephorus cucumeries (Rice)” value [1] was 20 (20 and 24 = 10.1-20% disease present), the “POCO (Percentage of Control) disease level, Puccinia recondita (Wheat)” value [2] was 0+ (0 = 0% disease present) and the “POCO (Percentage of Control) disease level, Pyricularia oryzae (Rice)” value [3] was 0 (0 = 0% disease present). For the same molecule, the “POCO (Percentage of Control) disease level, Venturia inaequalis (Apples)” value [4] was 0 (0 = 0% disease present), the “POCO (Percentage of Control) disease level, Plasmopara viticola (Vines)” value [5] was 0 (0 = 0% disease present) and the “POCO (Percentage of Control) disease level, Phytophthora infestans (Tomatoes)” value [6] was 20 (20 and 24 = 10.1-20% disease present). For the same molecule, the “POCO (Percentage of Control) disease level, Erysiphe graminis tritici (Wheat)” value [7] was 0 (0 = 0% disease present) and the “POCO (Percentage of Control) disease level, Septoria nodorum (Wheat)” value (Septoria nodorum (Wheat)) was 0 (0 = 0% disease present).
In the case of `COC=C(C(=O)OC)c1ccccc1COC(=O)Nc1ccccc1Cl` [12 (1)], the “POCO (Percentage of Control) disease level, Thanatephorus cucumeries (Rice)” value [1] is reported as 30 (30 = 20.1-30% disease present), the “POCO (Percentage of Control) disease level, Puccinia recondita (Wheat)” value [2] is reported as 10+ (10 = 5.1-10% disease present) and the “POCO (Percentage of Control) disease level, Pyricularia oryzae (Rice)” value [3] is reported as 5 (5 = 3.1-5% disease present). For the same molecule, the “POCO (Percentage of Control) disease level, Venturia inaequalis (Apples)” value [4] was 0 (0 = 0% disease present), the “POCO (Percentage of Control) disease level, Plasmopara viticola (Vines)” value [5] was 0 (0 = 0% disease present) and the “POCO (Percentage of Control) disease level, Phytophthora infestans (Tomatoes)” value [6] was 30 (30 = 20.1-30% disease present). The “POCO (Percentage of Control) disease level, Erysiphe graminis tritici (Wheat)” value [7] was 0 (0 = 0% disease present) and the “POCO (Percentage of Control) disease level, Septoria nodorum (Wheat)” value (Septoria nodorum (Wheat)) was 10 (10 = 5.1-10% disease present).
With `COC=C(C(=O)OC)c1ccccc1COC(=O)N(C)c1ccccc1Cl` [12 (2)] the “POCO (Percentage of Control) disease level, Thanatephorus cucumeries (Rice)” value [1] was 0 (0 = 0% disease present), the “POCO (Percentage of Control) disease level, Puccinia recondita (Wheat)” value [2] was 30+ (30 = 20.1-30% disease present) and the “POCO (Percentage of Control) disease level, Pyricularia oryzae (Rice)” value [3] was 10 (10 = 5.1-10% disease present). For the same molecule, the “POCO (Percentage of Control) disease level, Venturia inaequalis (Apples)” value [4] was 0 (0 = 0% disease present), the “POCO (Percentage of Control) disease level, Plasmopara viticola (Vines)” value [5] was 0 (0 = 0% disease present) and the “POCO (Percentage of Control) disease level, Phytophthora infestans (Tomatoes)” value [6] was 5 (5 = 3.1-5% disease present). For the same molecule, the “POCO (Percentage of Control) disease level, Erysiphe graminis tritici (Wheat)” value [7] was 0 (0 = 0% disease present) and the “POCO (Percentage of Control) disease level, Septoria nodorum (Wheat)” value (Septoria nodorum (Wheat)) was 3 (3 = 1.1-3% disease present).
In the case of `COC=C(C(=O)OC)c1ccccc1COC(=O)N(C(C)=O)c1ccccc1Cl` [12 (99)], the “POCO (Percentage of Control) disease level, Thanatephorus cucumeries (Rice)” value [1] is reported as 90 (90 and 94 = 60.1-100% disease present), the “POCO (Percentage of Control) disease level, Puccinia recondita (Wheat)” value [2] is reported as 30+ (30 = 20.1-30% disease present) and the “POCO (Percentage of Control) disease level, Pyricularia oryzae (Rice)” value [3] is reported as 10 (10 = 5.1-10% disease present). For the same molecule, the “POCO (Percentage of Control) disease level, Venturia inaequalis (Apples)” value [4] was 5 (5 = 3.1-5% disease present), the “POCO (Percentage of Control) disease level, Plasmopara viticola (Vines)” value [5] was 0 (0 = 0% disease present) and the “POCO (Percentage of Control) disease level, Phytophthora infestans (Tomatoes)” value [6] was 90 (90 and 94 = 60.1-100% disease present). The “POCO (Percentage of Control) disease level, Erysiphe graminis tritici (Wheat)” value [7] was 30 (30 = 20.1-30% disease present) and the “POCO (Percentage of Control) disease level, Septoria nodorum (Wheat)” value (Septoria nodorum (Wheat)) was 10 (10 = 5.1-10% disease present).
With `COC=C(C(=O)OC)c1ccccc1COC(=O)N(C)c1ccc(F)cc1` [13 (2)] the “POCO (Percentage of Control) disease level, Thanatephorus cucumeries (Rice)” value [1] was 0 (0 = 0% disease present), the “POCO (Percentage of Control) disease level, Puccinia recondita (Wheat)” value [2] was 0+ (0 = 0% disease present) and the “POCO (Percentage of Control) disease level, Pyricularia oryzae (Rice)” value [3] was 0 (0 = 0% disease present). For the same molecule, the “POCO (Percentage of Control) disease level, Venturia inaequalis (Apples)” value [4] was 0 (0 = 0% disease present), the “POCO (Percentage of Control) disease level, Plasmopara viticola (Vines)” value [5] was 0 (0 = 0% disease present) and the “POCO (Percentage of Control) disease level, Phytophthora infestans (Tomatoes)” value [6] was 0 (0 = 0% disease present). The “POCO (Percentage of Control) disease level, Erysiphe graminis tritici (Wheat)” value [7] was 0 (0 = 0% disease present) and the “POCO (Percentage of Control) disease level, Septoria nodorum (Wheat)” value (Septoria nodorum (Wheat)) was 0 (0 = 0% disease present).
`CCN(C(=O)OCc1ccccc1C(=COC)C(=O)OC)c1ccc(F)cc1` [13 (3)] was tested, and the “POCO (Percentage of Control) disease level, Thanatephorus cucumeries (Rice)” value [1] was 0 (0 = 0% disease present), the “POCO (Percentage of Control) disease level, Puccinia recondita (Wheat)” value [2] was 0+ (0 = 0% disease present) and the “POCO (Percentage of Control) disease level, Pyricularia oryzae (Rice)” value [3] was 0 (0 = 0% disease present). The “POCO (Percentage of Control) disease level, Venturia inaequalis (Apples)” value [4] was 0 (0 = 0% disease present), the “POCO (Percentage of Control) disease level, Plasmopara viticola (Vines)” value [5] was 0 (0 = 0% disease present) and the “POCO (Percentage of Control) disease level, Phytophthora infestans (Tomatoes)” value [6] was 0 (0 = 0% disease present). For the same molecule, the “POCO (Percentage of Control) disease level, Erysiphe graminis tritici (Wheat)” value [7] was 0 (0 = 0% disease present) and the “POCO (Percentage of Control) disease level, Septoria nodorum (Wheat)” value (Septoria nodorum (Wheat)) was 0 (0 = 0% disease present).
In the case of `COC=C(C(=O)OC)c1ccccc1COC(=O)Nc1ccccc1OC` [16 (1)], the “POCO (Percentage of Control) disease level, Thanatephorus cucumeries (Rice)” value [1] is reported as 90 (90 and 94 = 60.1-100% disease present), the “POCO (Percentage of Control) disease level, Puccinia recondita (Wheat)” value [2] is reported as 90+ (90 and 94 = 60.1-100% disease present) and the “POCO (Percentage of Control) disease level, Pyricularia oryzae (Rice)” value [3] is reported as 20 (20 and 24 = 10.1-20% disease present). The “POCO (Percentage of Control) disease level, Venturia inaequalis (Apples)” value [4] was 60 (60 = 30.1-60% disease present), the “POCO (Percentage of Control) disease level, Plasmopara viticola (Vines)” value [5] was 0 (0 = 0% disease present) and the “POCO (Percentage of Control) disease level, Phytophthora infestans (Tomatoes)” value [6] was 90 (90 and 94 = 60.1-100% disease present). The “POCO (Percentage of Control) disease level, Erysiphe graminis tritici (Wheat)” value [7] was 90 (90 and 94 = 60.1-100% disease present) and the “POCO (Percentage of Control) disease level, Septoria nodorum (Wheat)” value (Septoria nodorum (Wheat)) was 90 (90 and 94 = 60.1-100% disease present).
In the case of `COC=C(C(=O)OC)c1ccccc1COC(=O)N(C)c1ccccc1OC` [16 (2)], the “POCO (Percentage of Control) disease level, Thanatephorus cucumeries (Rice)” value [1] is reported as 5 (5 = 3.1-5% disease present), the “POCO (Percentage of Control) disease level, Puccinia recondita (Wheat)” value [2] is reported as 10+ (10 = 5.1-10% disease present) and the “POCO (Percentage of Control) disease level, Pyricularia oryzae (Rice)” value [3] is reported as 0 (0 = 0% disease present). For the same molecule, the “POCO (Percentage of Control) disease level, Venturia inaequalis (Apples)” value [4] was 1 (1 = 0.1-1% disease present), the “POCO (Percentage of Control) disease level, Plasmopara viticola (Vines)” value [5] was 0 (0 = 0% disease present) and the “POCO (Percentage of Control) disease level, Phytophthora infestans (Tomatoes)” value [6] was 20 (20 and 24 = 10.1-20% disease present). The “POCO (Percentage of Control) disease level, Erysiphe graminis tritici (Wheat)” value [7] was 0 (0 = 0% disease present) and the “POCO (Percentage of Control) disease level, Septoria nodorum (Wheat)” value (Septoria nodorum (Wheat)) was 5 (5 = 3.1-5% disease present).
With `C#CCN(C(=O)OCc1ccccc1C(=COC)C(=O)OC)c1ccccc1OC` [16 (15)] the “POCO (Percentage of Control) disease level, Thanatephorus cucumeries (Rice)” value [1] was 0 (0 = 0% disease present), the “POCO (Percentage of Control) disease level, Puccinia recondita (Wheat)” value [2] was 60+ (60 = 30.1-60% disease present) and the “POCO (Percentage of Control) disease level, Pyricularia oryzae (Rice)” value [3] was 0 (0 = 0% disease present). The “POCO (Percentage of Control) disease level, Venturia inaequalis (Apples)” value [4] was 1 (1 = 0.1-1% disease present), the “POCO (Percentage of Control) disease level, Plasmopara viticola (Vines)” value [5] was 0 (0 = 0% disease present) and the “POCO (Percentage of Control) disease level, Phytophthora infestans (Tomatoes)” value [6] was 5 (5 = 3.1-5% disease present). For the same molecule, the “POCO (Percentage of Control) disease level, Erysiphe graminis tritici (Wheat)” value [7] was 0 (0 = 0% disease present) and the “POCO (Percentage of Control) disease level, Septoria nodorum (Wheat)” value (Septoria nodorum (Wheat)) was 10 (10 = 5.1-10% disease present).

— US6465457B1 (priority 1991, dated 2002)
